Results reported in patent US20100035843A1, “METHODS FOR ATTENUATING ALLERGEN-INDUCED AIRWAY HYPERREACTIVITY USING CD1D DEPENDENT ANTAGONISTS” (THE GENERAL HOSPITAL CORPORATION, priority 2007, published 2010).

Assays:
[1] = tested on: α-GalCer-stimulated iNKT cells; test: Inhibition of in vitro iNKT activation: splenocytes stimulated with α-GalCer, cytokine ELISA; assay type: cell-based, BALB/cJ mice
Protocol: (§1) FIGS. 1A and 1B show splenocyte cells (5×10^6/ml) pooled from BALB/cJ mice (n=4) that were cultured in anti-CD3 mAb (2 μg/ml)-precoated 24-well plates in complete RPMI±increasing concentrations of DPPE-PEG350, or that were cultured in 24-well plates in complete RPMI±α-GalCer (100 ng/ml)±increasing concentrations of DPPE-PEG350. After 48 h, supernatants were gathered and examined for IL-4 and INF-γ by ELISA. ELISA data are representative of three separate experiments each and are shown as mean±SD for triplicate samples.
(§2) Inhibition of in vitro iNKT activation with DPPE-PEG-Splenocytes cells (5×10^6/ml) pooled from BALB/cJ mice (n=4) were cultured in anti-CD3 mAb (2 μg/ml)-precoated 24-well plates in complete RPMI±increasing concentrations of DPPE-PEG350, or cultured in 24-well plates in complete RPMI±KRN7000 (100 ng/ml)±increasing concentrations of DPPE-PEG350. After 48 h, supernatants were gathered and examined for IL-4 and INF-γ by ELISA as described (35).
(§3) Phosphatidylethanolamine and DPPE-PEG bind to CD1d and prevent iNKT cell activation (2-5). To determine whether activation of iNKT cells by α-GalCer could specifically be inhibited by DPPE-PEG, splenocytes were incubated with α-GalCer (100 ng/ml) or plate-bound anti-CD3. […] Culture supernatants were collected and IL-2 expression expression analyzed with IL-2 dependant cell line CTLL-2. […]

[2] = tested on: anti-CD3 activated T cells; test: Splenocytes cultured on plate-bound anti-CD3 mAb, cytokine ELISA; assay type: cell-based, BALB/cJ mice; conditions: plate-bound anti-CD3 2 μg/ml, at concentrations that significantly inhibited α-GalCer-stimulated secretion
Protocol: as §1, §2, §3

[3] = tested on: iNKT cell hybridoma line DN32; test: DN32 NKT hybridoma activation by α-GalCer, IL-2 release read with CTLL-2 cells; assay type: cell-based; conditions: 200 μg/ml for 4 hours, then titrating α-GalCer 48 h; particularly at suboptimal α-GalCer (FIG. 1C)
Protocol: Culture supernatants were collected and IL-2 expression expression analyzed with IL-2 dependant cell line CTLL-2. Data are means±SD of triplicate cultures.
as §1, with “Phosphatidylethanolamine and DPPE-PEG bind to CD1d and prevent iNKT cell activation (2-5). To determine whether activation of iNKT cells by α-GalCer could specifically be inhibited by DPPE-PEG, splenocytes were incubated with α-GalCer (100 ng/ml) or plate-bound anti-CD3. […] FIGS.” for “FIGS.”, “samples. […] Culture supernatants were collected and IL-2 expression expression analyzed with IL-2 dependant cell line CTLL-2. Data are means±SD of triplicate cultures.” for “samples.”
We also tested the ability of DPPE-PEG350 to block the iNKT cell hybridoma line DN32, activation by α-GalCer. DN32 cells were loaded with 200 μg/ml of DPPE-PEG, and stimulated with titrating dose of α-GalCer. […]

OVA-induced AHR = test: OVA-induced model of airway hyperreactivity (AHR); assay type: in vivo, BALB/c mice; conditions: for number of cells (eosinophils, lymphocytes, macrophages) in BAL fluid: versus OVA-immunized control group, BAL 3 h after airway measurements (FIG. 2D); for histological examination of H&E-stained lung sections: OVA-immunized mice, compared with saline (negative) control (data not shown); for development of methacholine-induced AHR (PenH, whole-body plethysmograph): single dose 250 μg i.v., 1 day before OVA challenge, OVA-immunized mice (FIG. 2B)
Protocol: DPPE (250 μg) was injected i.v. on day 8 and AHR was measured on day 12. Reagents. Anti-CD3 mAb was purchased from BD PharMingen (San Diego, Calif.). α-Galactosylceramide (α-[…]7000) was purchased from Axxora LLC (San Diego, Calif.). DPPE-PEG. (1,2-Dipalmitoyl-sn-Glycero-3-Phosphoethanolamine-N-[Methoxy(Polyethylene glycol)-350]) (Ammonium Salt) (PEG350) was purchased from Avanti Polar Lipids, INC (Alabaster, Ala.). We thank A. Bendelac for the DN32.D3 hybridoma cells. To induce AHR, mice were immunized intraperitoneally with 50 μg of LPS free OVA (Worthington Biochemical Corp., NJ) in 2 mg of alum in volume of 0.5 ml. Ten days later mice were lightly anesthetized with methoxoflurane and challenged with i.n. OVA (50 μg) on 3 consecutive days. Induction of AHR and measurement of airway responsiveness-AHR responses were assessed by methacholine-induced airflow obstruction in conscious mice placed in a whole-body plethysmograph (Buxco Electronics, Troy, N.Y.) as described previously 15. In some experiments AHR was assessed by invasive measurement of airway resistance, in which anesthetized and tracheostomized mice were mechanically ventilated using a modified version of a described method 36. Aerosolized methacholine was administered for 20 breaths in increasing concentrations (1.25, 2.5, 5 and 10 mg/ml of methacholine). We continuously computed RL and Cdyn by fitting flow, volume and pressure to an equation of motion. Collection and analysis of BAL fluid-Mice were lethally anesthetized with phenobarbital 450 mg/kg i.p. The trachea was cannulated and the lungs were lavaged three times with 0.3 ml of PBS, and the collected fluid was pooled. Cell counts and analysis of the BAL was performed as described (15). […] In this model, an asthma-like phenotype with AHR, eosinophilic airway inflammation and mucus hypersecretion is induced by systemic sensitization with OVA followed by intrapulmonary challenge with OVA (FIG. 2A).

[4] = tested on: OVA-specific Th2 responses; test: Restimulation of bronchial lymph node cells of treated mice with OVA in vitro, cytokine ELISA; assay type: in vivo, BALB/c mice
Protocol: Bronchial lymph nodes were removed from Peg treated or PBS treated mice and restimulated with 100 μg of OVA in vitro. After 72 hrs supernatants were collected and cytokine production analyzed by ELISA. ELISA data are representative of three separate experiments (n=4) and are shown as mean±SD for triplicate samples. Restimulation of lymph node cells in vitro. Cells isolated from lymph nodes of OVA-primed mice were restimulated in vitro (5×10^5 cells per well in a 96-well plate) with various concentrations of OVA. Supernatants were collected after 4 days and assayed for IL-4 and IFN-γ by ELISA as previously described (15). Cytokine ELISAs—Cytokine secretion following in vitro challenge with OVA and control peptides were determined by ELISA as described before (15). Briefly, the following monoclonal antibodies R4-6A2 and XMG1.2-biotin for IFN-γ and 11B11 and BVD6-24G2-biotin for IL-4 were used for capture and detection. […] Bronchial lymph nodes were removed from Peg treated or PBS treated mice and restimulated with 100 μg of OVA in vitro. After 72 hrs supernatants were collected and cytokine production analyzed by ELISA. ELISA data are representative of three separate experiments (n=4) and are shown as mean±SD for triplicate samples. Since treatment with DPPE-PEG350 inhibited the development of AHR, we next asked if administration of the CD1d-dependent antagonist prior to airway challenge altered systemic OVA-specific Th2 responses. Bronchial lymph node cells were isolated from OVA sensitized mice treated with either DPPE-PEG350 or PBS, and restimulated in vitro with 100 μg/ml of ovalbumin a day after induction of AHR. […] No OVA-specific cytokine secretion was seen if the animals had not been sensitized with OVA on day 0 (data not shown).

CD1d = conditions: references 2-5; cited from earlier work
iNKT cell = conditions: references 2-5; cited from earlier work
[5] = tested on: contact hypersensitivity (CHS); conditions: Nieuwenhuis et al.; cited from earlier work
[6] = bronchial lymph node cells, 100 μg/ml ovalbumin, versus PBS treated group (FIG. 3)

## 1,2-Dipalmitoyl-sn-Glycero-3-Phosphoethanolamine-N-[Methoxy(Polyethylene glycol)-350] [DPPE-PEG350]
[1]; splenocytes, α-GalCer 100 ng/ml, increasing concentrations of DPPE-PEG, 48 h, ELISA (FIG. 1A/1B)
  secretion of IL-4 by α-GalCer-stimulated iNKT cells: inhibited
[1]; α-GalCer-stimulated versus anti-CD3-stimulated splenocytes (FIGS. 1A and B)
  iNKT cells cytokine release compared to anti-CD3 activated T cells (preference): preferentially inhibited
[2]
  cytokine production by anti-CD3 activated T cells: no or minimal effect
[3]
  IL-2 release from DN32 iNKT cells: inhibited
OVA-induced AHR; 250 μg i.v., anesthetized, tracheostomized, mechanically ventilated mice (FIG. 2C)
  AHR by direct measurement of airway resistance (RL) and dynamic compliance (Cdyn): confirmed
OVA-induced AHR; 250 μg i.v.
  number of cells (eosinophils, lymphocytes, macrophages) in BAL fluid: significantly reducing
OVA-induced AHR
  histological examination of H&E-stained lung sections: no significant differences
  development of methacholine-induced AHR (PenH, whole-body plethysmograph): completely prevented
[4]; [6]
  IL-4 secretion to OVA recall: No significant difference
  IL-5 secretion to OVA recall: No significant difference
  IL-13 secretion to OVA recall: No significant difference
[4]; sensitized and DPPE-PEG treated animals
  ova-specific secretion of IFN-γ after in vitro re-challenge: did not affect
CD1d
  binding to CD1d: bind
iNKT cell
  iNKT cell activation: prevent
[5]
  dermatitis in the CHS model: blocked

## CCCCCCCCCCCCCCCC(=O)OC[C@H](COP(=O)(O)OCCN)OC(=O)CCCCCCCCCCCCCCC [DPPE, 1,2-Dipalmitoyl-sn-Glycero-3-Phosphoethanolamine]
OVA-induced AHR; 250 μg i.v.
  number of cells (eosinophils, lymphocytes, macrophages) in BAL fluid: almost completely abrogated
OVA-induced AHR
  histological examination of H&E-stained lung sections: minimal mucus production and negligible cellular infiltration
  development of methacholine-induced AHR (PenH, whole-body plethysmograph): completely inhibited
[4]; bronchial lymph nodes restimulated with 100 μg of OVA, 72 hrs (FIG. 3)
  development of OVA specific Th2 responses: does not inhibit

## Phosphatidylethanolamine [reference compound]
CD1d
  binding to CD1d: bind
iNKT cell
  iNKT cell activation: prevent
